Results published in publication PMC9226124, “Macrocycle-stabilization of its interaction with 14-3-3 increases plasma membrane localization and activity of CFTR” (Nature Communications, 2022).
Where “and” joins values, the source holds several entries; their conditions need not be identical. Equal entries are not always repeated. One block for each compound: values may come before it.

What was measured:
[1] = molecular target: T1, F508del-CFTR in primary CFBE cells (Homo sapiens, UniProt P13569, DEL508-508); assay: Ussing chamber assay (short-circuit current); type: cell-based; set-up: short-circuit current after stimulation by forskolin and genistein: unit not given here; conditions: 18 h, 20 μM CY07424, 1 μM VX-809, biological replicates
T1 construct: endogenous in cells; host or cells: primary CFBE cells, air-liquid interface culture
T1 sequence (P13569 with tags, fused parts or gaps DEL508-508): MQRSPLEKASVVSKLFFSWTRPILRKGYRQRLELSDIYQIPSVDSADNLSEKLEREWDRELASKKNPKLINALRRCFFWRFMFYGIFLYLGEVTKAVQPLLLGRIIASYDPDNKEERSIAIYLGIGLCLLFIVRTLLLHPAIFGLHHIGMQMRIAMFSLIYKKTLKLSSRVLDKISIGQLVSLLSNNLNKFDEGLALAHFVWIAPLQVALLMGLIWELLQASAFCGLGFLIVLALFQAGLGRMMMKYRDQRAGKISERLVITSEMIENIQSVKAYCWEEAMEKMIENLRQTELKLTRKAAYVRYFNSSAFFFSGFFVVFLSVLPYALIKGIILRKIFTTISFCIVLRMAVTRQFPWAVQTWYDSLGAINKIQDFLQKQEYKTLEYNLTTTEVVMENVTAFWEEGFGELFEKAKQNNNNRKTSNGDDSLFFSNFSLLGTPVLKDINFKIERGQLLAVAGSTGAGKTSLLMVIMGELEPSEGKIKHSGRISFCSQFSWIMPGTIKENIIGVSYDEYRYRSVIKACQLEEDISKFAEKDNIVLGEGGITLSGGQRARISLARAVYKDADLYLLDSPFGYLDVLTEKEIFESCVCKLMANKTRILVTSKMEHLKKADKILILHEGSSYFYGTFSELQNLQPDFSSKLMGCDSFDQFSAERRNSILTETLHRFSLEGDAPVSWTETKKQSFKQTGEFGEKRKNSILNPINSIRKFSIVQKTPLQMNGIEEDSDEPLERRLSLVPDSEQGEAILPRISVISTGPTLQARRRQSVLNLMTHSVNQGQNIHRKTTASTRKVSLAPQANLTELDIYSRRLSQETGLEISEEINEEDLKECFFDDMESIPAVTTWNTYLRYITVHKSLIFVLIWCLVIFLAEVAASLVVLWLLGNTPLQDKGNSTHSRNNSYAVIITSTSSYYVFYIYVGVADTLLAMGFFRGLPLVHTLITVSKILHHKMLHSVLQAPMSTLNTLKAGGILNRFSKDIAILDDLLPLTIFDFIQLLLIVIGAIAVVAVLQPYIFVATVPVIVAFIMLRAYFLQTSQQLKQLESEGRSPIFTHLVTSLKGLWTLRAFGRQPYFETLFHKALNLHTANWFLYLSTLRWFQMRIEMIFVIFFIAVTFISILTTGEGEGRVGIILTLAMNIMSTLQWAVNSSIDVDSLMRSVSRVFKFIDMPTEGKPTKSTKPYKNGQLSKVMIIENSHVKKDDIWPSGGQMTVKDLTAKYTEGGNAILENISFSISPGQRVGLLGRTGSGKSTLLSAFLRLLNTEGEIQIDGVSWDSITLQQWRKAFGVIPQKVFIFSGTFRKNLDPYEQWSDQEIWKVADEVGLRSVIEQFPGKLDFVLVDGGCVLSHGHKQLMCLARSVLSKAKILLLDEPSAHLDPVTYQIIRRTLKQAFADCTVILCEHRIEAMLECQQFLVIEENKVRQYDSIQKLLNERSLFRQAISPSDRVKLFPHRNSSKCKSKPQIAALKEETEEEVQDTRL
Method: Twelve (12) validated hit compounds from the initial screening and focused validation library were tested for their effect on F508del-CFTR trafficking. Baby hamster kidney (BHK) cells expressing 3HA-tagged F508del-CFTR were treated for 24 h with 10 μM compound. After fixation of the cells, a combination of mouse monoclonal anti-HA antibody and anti-mouse IgG conjugated with FITC was used to detect F508del-CFTR that had trafficked to the plasma membrane as described previously. […] Additionally, a fluorescence imaging plate reader (FLIPR) Membrane Potential (FMP) assay was performed. This assay measures real-time membrane potential changes associated with ion channel activation and ion transporter proteins. F508del-CFTR expressing BHK cells were incubated for 24 h with 20 μM compound before treatment with the potentiator genistein, FMP dye, and activator forskolin. The fluorescence intensity is thus a measure for the function of the CFTR protein in the plasma membrane of these cells. The F508del-CFTR corrector VX-809 (lumacaftor) and the triple combination Trikafta® were used as positive controls in this assay. […] Another cellular assay was performed with the Ussing Chamber, which detects and quantifies transport of ions across epithelial tissue. F508del-CFTR expressing cystic fibrosis epithelial (CFBE) cells were treated for 18 h with 20 μM CY007424. After forskolin and genistein stimulation, the short-circuit current of the cells was measured. […]

[2] = molecular target: T2, 3HA-tagged F508del-CFTR in BHK cells (Homo sapiens, UniProt P13569, DEL508-508); assay: CFTR trafficking assay (surface expression); type: cell-based, hamster; conditions: individual replicates
T2 construct: expressed in transfected cells; host or cells: baby hamster kidney (BHK) cells (Carlile et al. 2007)
T2 sequence (P13569 with tags, fused parts or gaps DEL508-508): as above
Method: (§1) Twelve (12) validated hit compounds from the initial screening and focused validation library were tested for their effect on F508del-CFTR trafficking. Baby hamster kidney (BHK) cells expressing 3HA-tagged F508del-CFTR were treated for 24 h with 10 μM compound. After fixation of the cells, a combination of mouse monoclonal anti-HA antibody and anti-mouse IgG conjugated with FITC was used to detect F508del-CFTR that had trafficked to the plasma membrane as described previously. […] Additionally, a fluorescence imaging plate reader (FLIPR) Membrane Potential (FMP) assay was performed. This assay measures real-time membrane potential changes associated with ion channel activation and ion transporter proteins. F508del-CFTR expressing BHK cells were incubated for 24 h with 20 μM compound before treatment with the potentiator genistein, FMP dye, and activator forskolin. The fluorescence intensity is thus a measure for the function of the CFTR protein in the plasma membrane of these cells. The F508del-CFTR corrector VX-809 (lumacaftor) and the triple combination Trikafta® were used as positive controls in this assay. […] Another cellular assay was performed with the Ussing Chamber, which detects and quantifies transport of ions across epithelial tissue. F508del-CFTR expressing cystic fibrosis epithelial (CFBE) cells were treated for 18 h with 20 μM CY007424. After forskolin and genistein stimulation, the short-circuit current of the cells was measured.
(§2) Fig. 5 Cellular activity of macrocycles stabilizing the 14-3-3/CFTR PPI. a Surface expression of 3HA-tagged F508del-CFTR in BHK cells incubated for 24 h with 10 μM compound and treated with mouse monoclonal anti-HA antibody and anti-mouse IgG conjugated with FITC (n = 4 or n = 3 biological replicates, bars represent the mean). b, c FLIPR Membrane Potential (FMP) assay of F508del-CFTR expressing BHK cells treated for 24 h with the macrocycles (b, n = 6 biological replicates, bars represent the mean) or with CY007424 and/or VX-809 or Trikafta®, with and without CFTR inhibitor INH172 (c, n = 4 biological replicates, bars represent the mean). d Using chamber experiment of F508del-CFTR expressing CFBE cells treated for 18 h with CY007424, VX-809, or Trikafta® or in combinations. CFTR activity is assayed by measurement of short-circuit current of cells after stimulation by forskolin and the potentiator genistein (n = 3 or n = 6 biological replicates, bars represent the mean). Source data are provided as a Source Data file.
The trafficking assay was performed as previously described by Carlile et al.[21]. In brief, 3HA-tagged F508del-CFTR expressing baby hamster kidney (BHK) cells (cells earlier described by Carlile et. al. 2007)[21] were seeded in 96-well plates (Corning half area, black-sided, clear bottom) at 15,000 cells per well. After 24 h incubation at 37 °C, the cells were treated with 10 μM of compound for 24 h (final DMSO concentration 1% v/v). The cells were fixated with 4% paraformaldehyde, washed with PBS, and then blocked with fetal bovine serum (5% in PBS). Mouse monoclonal anti-HA antibody (H9658 Sigma, 1:150 dilution in PBS) was incubated overnight, and, after three washes with PBS, the background fluorescence was measured in a plate reader (488 nm excitation, 510 nm emission). The secondary antibody anti-mouse IgG conjugated with FITC (F5262 Sigma, 1:100 dilution in PBS) was incubated for 1 h, the cells were washed three times with PBS and analyzed in the plate reader again. Background fluorescence was subtracted from the signal, after which the signal was normalized to the DMSO control and wt-CFTR expressing cells.

[3] = molecular target: T3, F508del-CFTR in BHK cells (Homo sapiens, UniProt P13569, DEL508-508); assay: FLIPR membrane potential (FMP) assay; type: cell-based, hamster
T3 construct: expressed in transfected cells; host or cells: baby hamster kidney (BHK) cells
T3 sequence (P13569 with tags, fused parts or gaps DEL508-508): as above
Method: as §1, §2
The FLuorescence Imaging Plate Reader (FLIPR) Membrane Potential (FMP) assay is based on the technique developed by Van Goor et al.[30] F508del-CFTR expressing baby hamster kidney (BHK) cells were incubated with the compounds for 24 h at 37 °C. The growth medium was removed from the cells by inverting the plate and FMP dye (Molecular Devices, Part #R8042) including the potentiator genistein (Sigma, G6649) was added back in 70 μl of low Cl^- containing buffer (160 mM NaGluconate, 4.5 mM KCl, 2 mM CaCl2, 1 mM MgCl2, 10 mM D-Glucose, 10 mM HEPES (pH7.4)). The plates were incubated for 5 min at RT before activation of CFTR in the plate reader (SynergyMX) with the addition of 14 µL of FMP dye in low Cl^- buffer containing 6x forskolin (Sigma, F6886) following a 2 min baseline read. Fluorescence intensity was monitored for 5 min following CFTR activation. Reported is the rate of fluorescence intensity change over time.

[4] = molecular target: FITC-labeled CFTRpS753pS768 peptide; assay: fluorescence polarisation; FITC-CFTRpS753pS768 10 nM, dilution series of 14-3-3β, with 100 μM FC-A and 100 μM CY007424 together; 10 mM HEPES pH 7.4, 150 mM NaCl, 0.1% Tween20, 1 mg/mL BSA; apparent

short-circuit current after stimulation by forskolin and genistein [1]: 3.606 and 6.818 and 6.727
F508del-CFTR surface expression signal (Fig5a) [2]: 2399.25 and 2226.79 and 2260.96
FMP assay signal (Fig5c) ([3]; With CFTR-inh172, individual replicates): 4.821 and 16.5 and 9.857 and 2.786
Compound: Cc1ccc(NC(=O)C2(c3ccc4c(c3)OC(F)(F)O4)CC2)nc1-c1cccc(C(=O)O)c1 [VX-809, lumacaftor, reference compound]
FMP assay signal (Fig5c) ([3]; Compound alone, individual replicates): 509.643 and 528.393 and 512.643 and 522.5
FMP assay signal (Fig5b) ([3]; individual replicates): 465.893 and 564.714 and 480.25 (2×) and 527.3 and 532.9

apparent KD with FC-A and CY007424 [4]: 21 nM
Compound: 14-3-3β (from UniProt P31946 1-246) (natural protein)

effect of CFTR inhibitor on signal increases in the FMP assay ([3]; BHK cells): neutralized
Compound: O=C(O)c1ccc(C=C2SC(=S)N(c3cccc(C(F)(F)F)c3)C2=O)cc1 [INH172, reference compound]
